Reference: patent US11118160B2, “Probiotic composition for enhancing an insects resistance to a pesticide” (The Regents of the University of California, priority 2017, dated 2021)

Key:
Drosophila melanogaster [1] = test: Host genome-wide transcription response to chronic pesticide exposure (FIGS. 4-5); type: in vivo; conditions: 2 mM atrazine
Source text: 1C) 16S-seq and microarray of microbiome before and after perturbation to quantify all microbial species and their transcriptomes. For treatments with strong effects, sequence the fly gut transcriptome (RNA-seq) to determine gene networks and pathways affected by exposure.

Drosophila melanogaster [2] = test: Survival of wild-type and gnotobiotic / germ free flies exposed to atrazine (FIGS. 5-6); type: in vivo
Description: (§1) The immediate and long-term responses of the gut microbiome to the top ten most utilized herbicides in the United States are measured using the model organism Drosophila melanogaster. By utilizing both gnotobiotic and wild-type flies in these perturbations, effects specifically due to the microbiome are isolated. Based on the results of the fly model, compounds are tested in mice in pre-adolescent exposure scenarios and long-term effects. As in the fly, genomic and metabolomics techniques are used. Detailed, life course assays throughout 12-week span would provide an extensive map of the dynamic composition of mammalian gut microbiomes. Identification of microbiome chemical and genetic interactions are obtained by utilizing the collaborative cross mice and also specified microbial compositions. Pesticide-induced changes in behavior are correlated with changes in the microbiome, while controlling for genetic background.
Axenic adult flies are generated and exposures are recapitulated. […] Further, GF flies are fully rescued and wild-type survival curves are restored by feeding flies the bacterial culture prior to exposure. Similar rescue experiments with other microbes are attempted, none of which are rescued.

[3] = system: Acetobacter in the insect gut; test: Remodeling of the gut microbiome in response to pesticide exposure (FIG. 1); type: in vivo, Drosophila melanogaster; conditions: exposure of flies
Description: as §1
AIM 1 Screen 20 most commonly used agricultural pesticides in the United States. Determine which pesticides impact microbiome composition in adult flies, leveraging the viability of germ-free animals and rapid life cycle. Measure the immediate (2 hrs) and long-term (10 days) responses of the microbiome to exposure using methods described below.
1C) 16S-seq and microarray of microbiome before and after perturbation to quantify all microbial species and their transcriptomes. […]

Drosophila melanogaster [4] = test: Fly behavioral phenotype after pesticide exposure; type: in vivo; conditions: exposed flies
Source text: 1D) Automated behavioral screening in 2D population cages with social affinity, aggression, and mating behavioral quantitative phenotypes. These are ideal because they integrate many aspects of the perturbed animal system, and will allow one skilled in the art to identify subtle neurological phenotypes may be missed by other modalities.
Fly behavioral studies: A 2D cage design with CCD video and fly tracking software is utilized widely by the community (19270697). This techniques enables the automated quantification of social affinity, aggression, and mating behavioral phenotypes.

| Compound | host response to exposure (transcription) (Drosophila melanogaster [1]) | survival of exposed germ free (GF) flies vs control flies with wild-type microbiomes (Drosophila melanogaster [2]; axenic adult flies) | lethality to the host (Drosophila melanogaster [2]; flies, extremely high doses) | susceptibility to toxicity, gnotobiotic flies lacking the atrazine metabolism pathway vs wild-type strains (Drosophila melanogaster [2]; gnotobiotic flies vs wild-type strains having the pathway) | effect on Acetobacter in the insect gut [3] | behavioral phenotype induced (Drosophila melanogaster [4]) |
| --- | --- | --- | --- | --- | --- | --- |
| CCNc1nc(Cl)nc(NC(C)C)n1 [Atrazine, atrazine] | induces an adaptive response associated largely with the transport of lipids | die earlier than control flies | not deadly at extremely high doses | significantly more susceptible to toxicity | induce the collapse of Acetobacter | induces a hyperactive phenotype |
| C[n+]1ccc(-c2cc[n+](C)cc2)cc1 [Paraquat, paraquat] | – | – | – | – | induce the collapse of Acetobacter | – |
